Laboratory results published in patent US10870638B2, “Pyridazinone compound or its salt, and herbicide containing it” (ISHIHARA SANGYO KAISHA, LTD., priority 2016, dated 2020).

Experiments:
Format in all cases: in vivo
Details in all cases: active ingredient amount 31 g/ha, 14th day after application
[1] = tested on: italian ryegrass (Lolium multiflorum Lam.); experiment: Test Example 1: foliar treatment, growth inhibition rate on 14th day
How it was run: (§1)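 Using a small sprayer, formulated compound in water (0.1 vol % surfactant, 1,000 L/ha) was applied to seedlings grown from seed in upland soil. Fourteen days on, growth state was observed and expressed as percent inhibition from 0 to 100.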

[2] = tested on: redroot pigweed (Amaranthus retroflexus L.); experiment: as above
How it was run: as §1

[3] = tested on: barnyardgrass (Echinochloa crus-qalli L.); experiment: as above
How it was run: as §1

[4] = tested on: green foxtail (Setaria viridis L.); experiment: as above
How it was run: (§2)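 Compounds applied once to leaves of pot-grown plants; wild oat at 0.4–1.2 leaf, foxtail 0.5–3.2, rice 0.2–2.7, soybean primary leaf. Inhibition estimated by eye on day 14.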

[5] = tested on: wheat (Triticum aestivum L.); experiment: as above
How it was run: as §1

[6] = tested on: soybean (Glycine max Merr.); experiment: as above
How it was run: as §2

corn (Zea mays L.) [7] = experiment: as above
How it was run: as §1

[8] = tested on: crabgrass (Digitaria sanquinalis L.); experiment: as above
How it was run: as §1

rice (Oryza sativa L.) [9] = experiment: as above
How it was run: as §2

[10] = tested on: wild oat (Avena fatua L.); experiment: as above
How it was run: as §2

[11] = tested on: redroot pigweed (Amaranthus retroflexus L.); experiment: Test Example 2: soil application on the day after sowing, growth inhibition rate on 14th day
How it was run: (§3)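 Read-out is visual percent growth inhibition 14 days post-application, scaled from 0 (as non-treated) to 100 (complete kill). Treatment: soil application by small sprayer the day after sowing, compound formulations diluted in water equivalent to 1,000 L/ha.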

[12] = tested on: barnyardgrass (Echinochloa crus-qalli L.); experiment: as above
How it was run: as §3

[13] = tested on: velvetleaf (Abutilon theophrasti MEDIC.); experiment: as above
How it was run: as §3

[14] = tested on: green foxtail (Setaria viridis L.); experiment: as above
How it was run: as §3

[15] = tested on: wheat (Triticum aestivum L.); experiment: as above
How it was run: as §3

[16] = tested on: soybean (Glycine max Merr.); experiment: as above
How it was run: as §3

[17] = tested on: crabgrass (Digitaris sanquinalis L.); experiment: as above
How it was run: as §3

corn (Zea mays L.) [18] = experiment: as above
How it was run: as §3

[19] = tested on: prickly sida (Sida spinosa L.); experiment: as above
How it was run: as §3

rice (Oryza sativa L.) [20] = experiment: as above
How it was run: as §3

| SMILES | Growth inhibition rate (%) Italian ryegrass [1] [%] | Growth inhibition rate (%) Redroot pigweed [2] [%] | Growth inhibition rate (%) Barnyardgrass [3] [%] | Growth inhibition rate (%) Green foxtail [4] [%] | Growth inhibition rate (%) Wheat [5] [%] | Growth inhibition rate (%) Soybean [6] [%] | Growth inhibition rate (%) Corn (corn (Zea mays L.) [7]) [%] | Growth inhibition rate (%) Crabgrass [8] [%] | Growth inhibition rate (%) Rice (rice (Oryza sativa L.) [9]) [%] | Growth inhibition rate (%) Wild oat [10] [%] | Growth inhibition rate (%) Redroot pigweed [11] [%] | Growth inhibition rate (%) Barnyardgrass [12] [%] | Growth inhibition rate (%) Velvetleaf [13] [%] | Growth inhibition rate (%) Green foxtail [14] [%] | Growth inhibition rate (%) Wheat [15] [%] | Growth inhibition rate (%) Soybean [16] [%] | Growth inhibition rate (%) Crabgrass [17] [%] | Growth inhibition rate (%) Corn (corn (Zea mays L.) [18]) [%] | Growth inhibition rate (%) Prickly sida [19] [%] | Growth inhibition rate (%) Rice (rice (Oryza sativa L.) [20]) [%] |
| --- | --- | --- | --- | --- | --- | --- | --- | --- | --- | --- | --- | --- | --- | --- | --- | --- | --- | --- | --- | --- |
| CC(=O)Oc1c(C)nn(C)c(=O)c1-c1cc(Oc2ncc(C(F)(F)F)cc2F)ccc1C [Compound 2-63] | 100 | 0 | 100 | 100 | 95 | 0 | 100 | 98 | 90 | 100 | 0 | 100 | 0 | 98 | 0 | 0 | 100 | 0 | 0 | 15 |
| Cc1ccc(Oc2ncc(C(F)(F)F)cc2Br)cc1-c1c(O)c(C)nn(C)c1=O [Compound 2-83] | 80 | 0 | 99 | 99 | 10 | 0 | 60 | 98 | 0 | 88 | 100 | 99 | 0 | 100 | 0 | 0 | 100 | 0 | 75 | 30 |
| Cc1ccc(Oc2ncc(C(F)(F)F)cc2C(F)(F)F)cc1-c1c(O)c(C)nn(C)c1=O [Compound 2-84] | 93 | 0 | 99 | 100 | 0 | 0 | 90 | 100 | 0 | 99 | 0 | 100 | 0 | 100 | 0 | 0 | 100 | 0 | 0 | 60 |
| CCc1nn(C)c(=O)c(-c2cc(Oc3nc4ccc(Cl)cc4o3)ccc2C)c1O [Compound 2-89] | 20 | 0 | 95 | 93 | 0 | 20 | 30 | 65 | 10 | 0 | 0 | 95 | 0 | 50 | 0 | 0 | 30 | 0 | 0 | 30 |
| Cc1ccc(Oc2cc(C(F)(F)F)c(C(F)(F)F)cn2)cc1-c1c(O)c(C)nn(C)c1=O [Compound 2-93] | 88 | 20 | 100 | 100 | 0 | 10 | 95 | 99 | 0 | 30 | 0 | 100 | 0 | 99 | 0 | 0 | 99 | 0 | 0 | 0 |
| Cc1ccc(Oc2ncc(Br)cc2Cl)cc1-c1c(O)c(C)nn(C)c1=O [Compound 2-101] | 50 | 0 | 75 | 88 | 0 | 20 | 80 | 85 | 0 | 70 | 0 | 78 | 0 | 95 | 10 | 0 | 93 | 20 | 0 | 0 |
